Test results published in ChEMBL document CHEMBL5625222, “Design, synthesis, and biological evaluation of 1,6-naphthyridine-2-one derivatives as novel FGFR4 inhibitors for the treatment of colorectal cancer” (Eur J Med Chem, 2023).
Activity calls are given as the source filed them. No cut-off for these calls is given here.

How the values were obtained:
SW480 = test: cells; conditions: Homo sapiens, SW480, 48 h
Description: Antiproliferative activity against human SW480 cells assessed as inhibition of cell growth incubated for 48 hrs by MTT assay

[1] = Antiproliferative activity against human Intestinal epithelial cell assessed as inhibition of cell growth incubated for 48 hrs by MTT assay; type: toxicity, cell-based; conditions: human intestinal epithelial cells
RKO = test: cells; conditions: Homo sapiens, 48 h
Description: Antiproliferative activity against human RKO cells assessed as inhibition of cell growth incubated for 48 hrs by MTT assay

HCT-116 [2] = test: cells; conditions: Homo sapiens, HCT-116, 48 h
Description: Antiproliferative activity against human HCT-116 cells assessed as inhibition of cell growth incubated for 48 hrs by MTT assay

BaF3 = test: Antiproliferative activity against mouse BaF3 transfected with FGFR4 assessed as inhibition of cell growth incubated for 72 hrs by CCK-8 assay; type: toxicity, cell-based; conditions: BaF3, 72 h
HCT-116 [3] = test: Antitumor activity against human HCT-116 cells xenografted in BALB/c mouse assessed as tumor growth inhibition at 10 mg/kg,po administrated for 2 weeks relative to control; type: functional; conditions: HCT-116, 336 h, read-out: TGI
HCT-116 [4] = test: Antitumor activity against human HCT-116 cells xenografted in BALB/c mouse assessed as chromatin condensation at 10 mg/kg,po administrated for 2 weeks by hematoxylin and eosin staining based analysis; type: functional, organism-based
[5] = Toxicity in BALB/c mouse xenografted with human HCT-116 cells assessed as histopathological change in kidney at 10 mg/kg,po administrated for 2 weeks by hematoxylin and eosin staining based analysis; type: organism-based; conditions: in vivo, 336 h
HCT-116 [6] = test: Antitumor activity against human HCT-116 cells xenografted in BALB/c mouse assessed as change in cell morphology at 10 mg/kg,po administrated for 2 weeks by hematoxylin and eosin staining based analysis; type: functional, organism-based
[7] = Toxicity in BALB/c mouse xenografted with human HCT-116 cells assessed as increase in serum AST level at 10 mg/kg,po administrated for 2 weeks; type: organism-based; conditions: in vivo, 336 h

Row | IC50 (SW480) [µM] | IC50 (RKO) [µM] | IC50 (HCT-116 [2]) [µM] | Compound | IC50 at 48 h [1] [µM] | IC50 (BaF3) [µM] | inhibition in vivo at 10 mg/kg (HCT-116 [3]) [%] | Activity (HCT-116 [4]) | Activity [5] | Activity (HCT-116 [6]) | Activity [7]
1 | 12.8 | 9.32 | 7.21 | C=CC(=O)Nc1cccc(C)c1Nc1cc2c(cn1)cc(-c1c(Cl)c(OC)cc(OC)c1Cl)c(=O)n2CCCO | 24 |  |  |  |  |  | 
2 | 10.3 | 11.2 | 9.37 | COc1cc(OC)c(Cl)c(-c2cc3cnc(Nc4c(C)cccc4N4CCCCC4)cc3n(CCCN3CCCCC3)c2=O)c1Cl | 25.1 |  |  |  |  |  | 
3 | 22.8 | 9.25 | 11.9 | COc1cc(OC)cc(-c2cc3cnc(Nc4c(C)cccc4N4CCOCC4)cc3n(CCCO)c2=O)c1 | 19.5 |  |  |  |  |  | 

More lines, now with the values behind:

Row | Compound | IC50 (SW480) [µM] | IC50 (RKO) [µM] | IC50 (HCT-116 [2]) [µM] | IC50 at 48 h [1] [µM] | IC50 (BaF3) [µM] | inhibition in vivo at 10 mg/kg (HCT-116 [3]) [%] | Activity (HCT-116 [4]) | Activity [5] | Activity (HCT-116 [6]) | Activity [7]
4 | C=CC(=O)Nc1cccc(C)c1Nc1ncc2cc(-c3c(Cl)c(OC)cc(OC)c3Cl)ccc2n1 | 12.7 | 19.7 | 8.89 | 18.4 | 0.00512 |  |  |  |  | 
5 | CNC(=O)c1c(C)oc2cc(Oc3ncnc4cc(OC)c(OC)cc34)ccc12 [FRUQUINTINIB] |  |  |  |  |  | 63.7 | Active | Toxic | Active | Toxic
6 | C=CC(=O)NCCCn1c(=O)c(-c2cc(OC)cc(OC)c2)cc2cnc(Nc3c(C)cccc3N3CCN(C)CC3)cc21 | 12.7 | 11.5 | 10.8 | 21.3 |  |  |  |  |  | 
